Data taken from patent US20150283120A1, “ANTIBIOTIC METHODS AND COMPOSITIONS FOR BACTERIA INFECTIONS” (THE UNIVERSITY OF CHICAGO, priority 2012, published 2015).
Where a name gives a salt, the structure may show the parent alone.

Key:
[1] = tested on: MRSA strain USA300 Pvra-lux; format: cell-based, Staphylococcus aureus; settings: compound 10 μM + oxacillin 2 μg/mL; for RG avg (relative growth): ratio of OD600 to oxacillin alone, four runs
Procedure: (§1) In the secondary screen each microtiter plate contained either cells in TSB alone (16 replicates), cells with oxacillin (2 μg/mL, 31 replicates), or cells with test compound and oxacillin (2 μg/mL, 49 wells). Each compound was assayed in four separate biological replicates.
(§2) All compounds classified in the primary screen as synergists that were vraSR-stimulating or -repressing (as shown in Table 8) were screened in a secondary assay for their effects on both growth and Pvra::lux induction by oxacillin. […] Each compound was tested four separate times at 10 μM in the presence of oxacillin (2 μg/mL) and luminescence was measured every 15 minutes. Relative growth (RG) and relative luminescence (RL) was calculated as the ratio between the OD600 or max LU value in the presence of compound and oxacillin over the average from pooled control values obtained from the same plate. […] Compounds that produced an average RG (ratio of the OD600 of the culture grown with test compound combined with oxacillin to that of oxacillin alone) of <0.8 were classified as oxacillin synergists or potentiators. The relative luminescence (RL) was the ratio of the LU produced in the presence of the test compound combined with oxacillin to that produced by oxacillin alone. Compounds were classified as “vraSR repressors” (mean RL of <0.8), “vraSR stimulators”, (mean RL>1.2), and “vraSR neutral” (mean RL between 0.80-1.2). […] In contrast, 34 compounds had no effect on growth in the presence of oxacillin (“un” in the OD600 category). Among the oxacillin potentiators, there were 2 vraSR stimulators, 3 vraSR neutral compounds and 10 vraSR repressors.

[2] = tested on: vraSR transcription (Pvra::lux); format: cell-based, Staphylococcus aureus; settings: compound 10 μM + oxacillin 2 μg/mL; for RL avg (relative luminescence): ratio of LU to oxacillin alone, four runs
Procedure: as §1, §2

| SMILES | OD600 category [1] | RG avg (relative growth) [1] | Effect on vraSR transcription [2] | RL avg (relative luminescence) [2] |
| --- | --- | --- | --- | --- |
| CCN(CC)CCc1nc(-c2ccccc2)no1.O=C(O)CC(O)(CC(=O)O)C(=O)O [Oxalamine citrate salt] | un (no effect on growth in the presence of oxacillin (“un” in the OD600 category)) | 1.03 | neutral (“vraSR neutral” (mean RL between 0.80-1.2)) | 1.00 |
| O=c1[nH]c2ccccc2n1CCCN1CCC(n2c(=O)[nH]c3cc(Cl)ccc32)CC1 [Domperidone] | un (no effect on growth in the presence of oxacillin (“un” in the OD600 category)) | 0.91 | neutral (“vraSR neutral” (mean RL between 0.80-1.2)) | 0.85 |
| CCCCN(CCCC)CCCOC(=O)c1ccc(N)cc1 [Butacaine] | un (no effect on growth in the presence of oxacillin (“un” in the OD600 category)) | 1.03 | neutral (“vraSR neutral” (mean RL between 0.80-1.2)) | 0.98 |
| CC1(C)S[C@@H]2[C@H](NC(=O)[C@H](NC(=O)N3CCNC3=O)c3ccccc3)C(=O)N2[C@H]1C(=O)O [Azlocillin sodium salt] | un (no effect on growth in the presence of oxacillin (“un” in the OD600 category)) | 0.91 | neutral (“vraSR neutral” (mean RL between 0.80-1.2)) | 0.78 |
| CN(C)CCOC(=O)COc1ccc(Cl)cc1 [Meclofenoxate hydrochloride] | un (no effect on growth in the presence of oxacillin (“un” in the OD600 category)) | 1.08 | neutral (“vraSR neutral” (mean RL between 0.80-1.2)) | 1.08 |
| CN(C)CCCN1c2ccccc2Sc2ccccc21 [Promazine hydrochloride] | un (no effect on growth in the presence of oxacillin (“un” in the OD600 category)) | 1.09 | neutral (“vraSR neutral” (mean RL between 0.80-1.2)) | 1.08 |
| C#C[C@]1(O)CC[C@H]2[C@@H]3CCc4cc(OC)ccc4[C@H]3CC[C@@]21C [Ethynylestradiol 3-methyl ether] | un (no effect on growth in the presence of oxacillin (“un” in the OD600 category)) | 0.95 | repress (“vraSR repressors” (mean RL of <0.8)) | 0.97 |
| O=C1OC(CN2CCOCC2)CN1/N=C/c1ccc([N+](=O)[O-])o1 (stereo not drawn) [Furaltadone hydrochloride] | un (no effect on growth in the presence of oxacillin (“un” in the OD600 category)) | 1.00 | repress (“vraSR repressors” (mean RL of <0.8)) | 1.01 |
| N[C@@H](Cc1cc(I)c(Oc2ccc(O)c(I)c2)c(I)c1)C(=O)O [Liothyronine] | un (no effect on growth in the presence of oxacillin (“un” in the OD600 category)) | 0.88 | neutral (“vraSR neutral” (mean RL between 0.80-1.2)) | 0.87 |
| COc1cccc2c1C(=O)c1c(O)c3c(c(O)c1C2=O)C[C@@](O)(C(=O)CO)C[C@@H]3O[C@H]1C[C@H](N)[C@H](O)[C@H](C)O1 [Doxorubicin hydrochloride] | un (no effect on growth in the presence of oxacillin (“un” in the OD600 category)) | 0.88 | repress (“vraSR repressors” (mean RL of <0.8)) | 0.83 |
| Cc1ccnc(NS(=O)(=O)c2ccc(N)cc2)n1 [Sulfamerazine] | un (no effect on growth in the presence of oxacillin (“un” in the OD600 category)) | 0.99 | neutral (“vraSR neutral” (mean RL between 0.80-1.2)) | 1.01 |
| C=C(C)[C@@H]1CC[C@]2(C(=O)O)CC[C@]3(C)[C@H](CC[C@@H]4[C@@]5(C)CC[C@H](O)C(C)(C)[C@@H]5CC[C@]43C)[C@@H]12 [Betulinic acid] | un (no effect on growth in the presence of oxacillin (“un” in the OD600 category)) | 0.87 | neutral (“vraSR neutral” (mean RL between 0.80-1.2)) | 0.83 |
| C[n+]1cc2c3c(ccc2c2ccc4cc5c(cc4c21)OCO5)OCO3 [Sanguinarine] | inhibited (of <0.8 were classified as oxacillin synergists or potentiators) | 0.78 | repress (“vraSR repressors” (mean RL of <0.8)) | 0.47 |
| C[C@]12CC[C@H](O)C[C@H]1CC[C@@H]1[C@@H]2CC[C@]2(C)[C@@H](C3=CC(=O)OC3)CC[C@]12O [Digitoxigenin] | un (no effect on growth in the presence of oxacillin (“un” in the OD600 category)) | 1.01 | neutral (“vraSR neutral” (mean RL between 0.80-1.2)) | 0.97 |
| O=C(c1ccc(OCCN2CCCCC2)cc1)c1c(-c2ccc(O)cc2)sc2cc(O)ccc12 [Raloxifene hydrochloride] | un (no effect on growth in the presence of oxacillin (“un” in the OD600 category)) | 0.97 | neutral (“vraSR neutral” (mean RL between 0.80-1.2)) | 0.85 |
| NS(=O)(=O)c1cc2c(cc1Cl)NC(C(Cl)Cl)NS2(=O)=O (stereo not drawn) [Trichlormethiazide] | un (no effect on growth in the presence of oxacillin (“un” in the OD600 category)) | 1.10 | neutral (“vraSR neutral” (mean RL between 0.80-1.2)) | 1.06 |
| COc1cccc2c1C(=O)c1c(O)c3c(c(O)c1C2=O)C[C@@](O)(C(C)=O)C[C@@H]3O[C@H]1C[C@H](N)[C@H](O)[C@H](C)O1 [Daunorubicin hydrochloride] | un (no effect on growth in the presence of oxacillin (“un” in the OD600 category)) | 0.98 | repress (“vraSR repressors” (mean RL of <0.8)) | 1.00 |
| N=C(N)NC(=O)Cc1c(Cl)cccc1Cl [Guanfacine hydrochloride] | un (no effect on growth in the presence of oxacillin (“un” in the OD600 category)) | 0.88 | neutral (“vraSR neutral” (mean RL between 0.80-1.2)) | 0.79 |
| CCCC(=O)Nc1ncnc2c1ncn2[C@@H]1O[C@@H]2COP(=O)(O)O[C@H]2[C@H]1OC(=O)CCC [Bucladesine sodium salt] | un (no effect on growth in the presence of oxacillin (“un” in the OD600 category)) | 1.02 | neutral (“vraSR neutral” (mean RL between 0.80-1.2)) | 0.94 |
| O=C1c2c(O)ccc(O)c2C(=O)c2c(NCCNCCO)ccc(NCCNCCO)c21 [Mitoxantrone dihydrochloride] | un (no effect on growth in the presence of oxacillin (“un” in the OD600 category)) | 0.94 | neutral (“vraSR neutral” (mean RL between 0.80-1.2)) | 0.83 |
| C[C@@H]1[C@H](O)[C@@H](C)/C=C/C=C/CC/C=C/C=C/C=C/C=C/C(O[C@H]2O[C@H](C)[C@@H](O)[C@H](N)[C@@H]2O)CC2O[C@](O)(CC(O)C(O)CCC(O)CC(O)CC(O)CC(=O)O[C@H]1C)CC(O)C2C(=O)O (stereo partly drawn) [Nystatine] | un (no effect on growth in the presence of oxacillin (“un” in the OD600 category)) | 1.00 | neutral (“vraSR neutral” (mean RL between 0.80-1.2)) | 1.04 |
| CC(Oc1ccccc1)C(=O)N[C@@H]1C(=O)N2[C@@H]1SC(C)(C)[C@@H]2C(=O)O (stereo partly drawn) [Phenethicillin potassium salt] | un (no effect on growth in the presence of oxacillin (“un” in the OD600 category)) | 0.94 | neutral (“vraSR neutral” (mean RL between 0.80-1.2)) | 0.88 |
| CN[C@@H]1[C@H](O)[C@H](NC)[C@H]2O[C@@]3(O)C(=O)C[C@@H](C)O[C@H]3O[C@@H]2[C@H]1O [Spectinomycin dihydrochloride] | un (no effect on growth in the presence of oxacillin (“un” in the OD600 category)) | 0.89 | neutral (“vraSR neutral” (mean RL between 0.80-1.2)) | 0.77 |
| C[N+]12CCC(CC1)C(OC(=O)C(O)(c1ccccc1)c1ccccc1)C2 (stereo not drawn) [Clidinium bromide] | un (no effect on growth in the presence of oxacillin (“un” in the OD600 category)) | 0.97 | neutral (“vraSR neutral” (mean RL between 0.80-1.2)) | 0.95 |
